Laboratory results as given in PubChem BioAssay AID2010 (Broad Institute, 2009).
Records with an inconclusive call do not appear. Active and inactive are the calls of the source.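 Rule for the calls: active = fitted IC50 within a set limit above the top dose, meaning light loss from cell killing; inconclusive = flat curve with 30 to 70% effect, or poor fit; inactive = IC50 beyond that set limit.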

Each molecule was assayed on NIH3T3 viability, ATP luminescence (CellTiter-Glo), 90 h (assay: NIH3T3 cell viability loss – ATP luminescence, mouse fibroblasts, counter-screen, dose response (AID 2010)).
In the case of C#CCOCCOCCOCCNc1nc(N2CCN(C(=O)CCCCCCCCCCNC(=O)Cn3cc(C[C@@H](C)O)nn3)CC2)nc(N2CCN(C(=O)CCCCCCCCCCNC(=O)[C@H](CCCN=C(N)N)n3cc(C[C@@H](C)CC)nn3)CC2)n1, the IC50 was > 6 µM (inactive). For O=[N+]([O-])C(/C=C(/Cl)[N+](=O)[O-])=C(N1CCCCC1)N1CCCCC1, the IC50 was > 6 µM (inactive). O=[N+]([O-])C(/C=C(\Cl)[N+](=O)[O-])=C(N1CCCCC1)N1CCCCC1 was tested, and the IC50 was > 6 µM (inactive). With Cc1ccccc1OCc1n(CC(=O)OC2CC(C)CCC2C(C)C)c2ccccc2[n+]1C (stereo not given) the IC50 was > 6 µM (inactive). For CC(C)N1C(=O)/C(=C\c2nc3ccccc3c(=O)n2-c2ccccc2)c2ccccc21, the IC50 was > 6 µM (inactive).
